Laboratory results as given in patent US12486489B2, “Culture medium for testing drug resistance of H.pylori as well as preparation method and use thereof” (priority 2022, dated 2025).
Where two headings read alike, the source gives them in different places.

How the values were obtained:
H. pylori [1] = test: MIC of laboratory H. pylori strains by micro dilution method; format: cell-based; conditions: Helicobacter pylori
H. pylori [2] = test: Verification of resistance breakpoint: growth of laboratory strains on Columbia solid culture medium with added antibiotics, 72 hours; format: cell-based, Helicobacter pylori
[3] = test system: clinical H. pylori strain; test: MIC of clinical H. pylori strains by micro dilution method; format: cell-based; conditions: Helicobacter pylori, 72 h, approximately 1.0×10^6 CFU/mL per well, 72 hours, read-out: MIC
H. pylori [4] = conditions: bacterial count 1×10^6 CFU/mL; cited from earlier work
H. pylori [5] = test: Drug resistance testing of laboratory strains on characteristic culture medium (discoloration after 36 hours); format: cell-based, Helicobacter pylori
Description: The characteristic culture media (A, B, C, D, E) are cultivated at a constant temperature of 37° C. for 36 hours in a three gas incubator. The characteristic culture media are removed and placed in a natural environment for 30 minutes to observe whether there are discolorations at the point of the culture medium where the specimen is dropped in. […] Another 100 μL of the specimen is taken and coated on Columbia solid culture medium and cultivated in a three gas incubator at a constant temperature of 37° C. for 3 days to 5 days. The number of colonies on the plate is counted to determine the initial inoculation amount. The micro dilution method is adopted to test the MIC of clinical specimen H. pylori, the test is meaningful only when there is no bacterial growth in the negative control well without bacteria and there is bacterial growth in the positive well with bacteria but without antibiotics. […] The results are recorded and whether the micro dilution method and characteristic culture medium are consistent with each other in evaluating the drug resistance of clinical H. pylori strains is compared. […]
(2) Inoculation of bacterial solution: 10 μL bacterial solution is taken and added dropwise onto a characteristic culture medium with 5 pieces (ABCDE) in total.
(3) Culture: all plates are moved to a three gas incubator and cultivated at 37° C. for 36 hours. After being taken out and placed in a natural environment for 30 minutes, whether the bacteria have resistance is determined based on the discoloration of the characteristic culture medium.

Q: Which results are given for `Cc1ncc([N+](=O)[O-])n1CCO` [Metronidazole, metronidazole]?
A: MIC (H. pylori [1]; read-out: MICs, standard sensitive strains G27 and 26695, bacterial count 1×10^6 CFU/mL): 0.25 µg/mL; MIC (H. pylori [1]; read-out: minimum inhibitory concentration (MIC), strain 159, bacterial count 10^6 CFU/mL (first line of the strain)): 4 µg/mL; MIC (H. pylori [1]; read-out: minimum inhibitory concentration (MIC), strain 159, bacterial count 10^6 CFU/mL (second line of the strain)): 2 µg/mL; MIC (H. pylori [1]; read-out: minimum inhibitory concentration (MIC), strain 161, bacterial count 10^4 CFU/mL): 1 µg/mL; MIC (H. pylori [1]; read-out: minimum inhibitory concentration (MIC), strain 161, bacterial count 10^6 CFU/mL (first line of the strain)): 4 µg/mL; MIC (H. pylori [1]; read-out: minimum inhibitory concentration (MIC), strain 161, bacterial count 10^6 CFU/mL (second line of the strain)): 2 µg/mL; MIC (H. pylori [1]; read-out: minimum inhibitory concentration (MIC), strain 162, bacterial count 10^6 CFU/mL (first line of the strain)): 2 µg/mL; MIC (H. pylori [1]; read-out: minimum inhibitory concentration (MIC), strain 162, bacterial count 10^6 CFU/mL (second line of the strain)): 1 µg/mL; MIC (H. pylori [1]; read-out: minimum inhibitory concentration (MIC), strain 163, bacterial count 10^4 CFU/mL): 2 µg/mL; MIC (H. pylori [1]; read-out: minimum inhibitory concentration (MIC), strain 163, bacterial count 10^6 CFU/mL (first line of the strain)): 16 µg/mL; MIC (H. pylori [1]; read-out: minimum inhibitory concentration (MIC), strain 163, bacterial count 10^6 CFU/mL (second line of the strain)): 4 µg/mL; MIC (H. pylori [1]; read-out: minimum inhibitory concentration (MIC), strain 286, bacterial count 10^4 CFU/mL): 4 µg/mL; MIC (H. pylori [1]; read-out: minimum inhibitory concentration (MIC), strain 286, bacterial count 10^6 CFU/mL (first line of the strain)): 32 µg/mL; MIC (H. pylori [1]; read-out: minimum inhibitory concentration (MIC), strain 286, bacterial count 10^6 CFU/mL (second line of the strain)): 16 µg/mL; MIC (H. pylori [1]; read-out: minimum inhibitory concentration (MIC), strain 287, bacterial count 10^4 CFU/mL): 8 µg/mL; MIC (H. pylori [1]; read-out: minimum inhibitory concentration (MIC), strain 287, bacterial count 10^6 CFU/mL (first line of the strain)): 32 µg/mL; MIC (H. pylori [1]; read-out: minimum inhibitory concentration (MIC), strain 287, bacterial count 10^6 CFU/mL (second line of the strain)): 16 µg/mL; MIC (H. pylori [1]; read-out: minimum inhibitory concentration (MIC), strain 289, bacterial count 10^4 CFU/mL): 8 µg/mL; MIC (H. pylori [1]; read-out: minimum inhibitory concentration (MIC), strain 289, bacterial count 10^6 CFU/mL (first line of the strain)): 32 µg/mL; MIC (H. pylori [1]; read-out: minimum inhibitory concentration (MIC), strain 289, bacterial count 10^6 CFU/mL (second line of the strain)): 16 µg/mL; MIC (H. pylori [1]; read-out: minimum inhibitory concentration (MIC), strain 290, bacterial count 10^4 CFU/mL): 4 µg/mL; MIC (H. pylori [1]; read-out: minimum inhibitory concentration (MIC), strain 290, bacterial count 10^6 CFU/mL (first line of the strain)): 32 µg/mL; MIC (H. pylori [1]; read-out: minimum inhibitory concentration (MIC), strain 290, bacterial count 10^6 CFU/mL (second line of the strain)): 16 µg/mL; MIC (H. pylori [1]; read-out: minimum inhibitory concentration (MIC), strain 26695, bacterial count 10^6 CFU/mL (second line of the strain)): 0.25 µg/mL; MIC (H. pylori [1]; resistant strains 159, 161, 162, 163, 286, 287, 289, and 290, bacterial count 1×10^6 CFU/mL, read-out: MICs): 1 to 16 µg/mL; MIC (H. pylori [1]; strain G27, bacterial count 10^4 CFU/mL, read-out: minimum inhibitory concentration (MIC)): 0.125 µg/mL; MIC (H. pylori [1]; strain G27, bacterial count 10^6 CFU/mL (first line of the strain), read-out: minimum inhibitory concentration (MIC)): 0.5 µg/mL; MIC (H. pylori [1]; strain G27, bacterial count 10^6 CFU/mL (second line of the strain), read-out: minimum inhibitory concentration (MIC)): 0.5 µg/mL; optimal concentration for adding antibiotics (H. pylori [2]; conclusion of breakpoint verification): 4 µg/mL; growth of sensitive strains (H. pylori [2]; levofloxacin 0.5, clarithromycin 0.5, metronidazole 4, amoxicillin 0.5 μg/mL): no sensitive strain grows; growth of bacterial (H. pylori [2]; strain 159, antibiotic 2 μg/mL): +; growth of bacterial (H. pylori [2]; strain 159, antibiotic 4 μg/mL): +; growth of bacterial (H. pylori [2]; strain 159, antibiotic 8 μg/mL): −; growth of bacterial (H. pylori [2]; strain 161, antibiotic 2 μg/mL): +; growth of bacterial (H. pylori [2]; strain 161, antibiotic 4 μg/mL): +; growth of bacterial (H. pylori [2]; strain 161, antibiotic 8 μg/mL): −; growth of bacterial (H. pylori [2]; strain 162, antibiotic 2 μg/mL): +; growth of bacterial (H. pylori [2]; strain 162, antibiotic 4 μg/mL): −; growth of bacterial (H. pylori [2]; strain 162, antibiotic 8 μg/mL): −; growth of bacterial (H. pylori [2]; strain 163, antibiotic 2 μg/mL): +; growth of bacterial (H. pylori [2]; strain 163, antibiotic 4 μg/mL): +; growth of bacterial (H. pylori [2]; strain 163, antibiotic 8 μg/mL): −; growth of bacterial (H. pylori [2]; strain 286, antibiotic 2 μg/mL): +; growth of bacterial (H. pylori [2]; strain 286, antibiotic 4 μg/mL): +; growth of bacterial (H. pylori [2]; strain 286, antibiotic 8 μg/mL): −; growth of bacterial (H. pylori [2]; strain 287, antibiotic 2 μg/mL): +; growth of bacterial (H. pylori [2]; strain 287, antibiotic 4 μg/mL): +; growth of bacterial (H. pylori [2]; strain 287, antibiotic 8 μg/mL): −; growth of bacterial (H. pylori [2]; strain 289, antibiotic 2 μg/mL): +; growth of bacterial (H. pylori [2]; strain 289, antibiotic 4 μg/mL): +; growth of bacterial (H. pylori [2]; strain 289, antibiotic 8 μg/mL): −; growth of bacterial (H. pylori [2]; strain 290, antibiotic 2 μg/mL): +; growth of bacterial (H. pylori [2]; strain 290, antibiotic 4 μg/mL): +; growth of bacterial (H. pylori [2]; strain 290, antibiotic 8 μg/mL): +; growth of bacterial (H. pylori [2]; strain 26695, antibiotic 2 μg/mL): +; growth of bacterial (H. pylori [2]; strain 26695, antibiotic 4 μg/mL): −; growth of bacterial (H. pylori [2]; strain 26695, antibiotic 8 μg/mL): −; growth of bacterial (H. pylori [2]; strain G27, antibiotic 2 μg/mL): +; growth of bacterial (H. pylori [2]; strain G27, antibiotic 4 μg/mL): −; growth of bacterial (H. pylori [2]; strain G27, antibiotic 8 μg/mL): −; MIC ([3]; clinical strain FY-31): 1 µg/mL; MIC ([3]; clinical strain FY-43): 0.5 µg/mL; MIC ([3]; clinical strain FY-47): 16 µg/mL; MIC ([3]; clinical strain FY-52): 1 µg/mL; resistance breakpoints of H. pylori according to CLSI guidelines (H. pylori [4]): 8 µg/mL; drug resistance determined by discoloration of characteristic culture medium (H. pylori [5]; strain 159, 1×10^6 CFU/mL): developed resistance; drug resistance determined by discoloration of characteristic culture medium (H. pylori [5]; strain 286, 1×10^6 CFU/mL): have developed resistance; drug resistance determined by discoloration of characteristic culture medium (H. pylori [5]; strain 287, 1×10^6 CFU/mL): have developed resistance; drug resistance determined by discoloration of characteristic culture medium (H. pylori [5]; strain 289, 1×10^6 CFU/mL): have developed resistance; drug resistance determined by discoloration of characteristic culture medium (H. pylori [5]; strain G27, 1×10^6 CFU/mL): does not develop resistance
